Measured values reported in patent publication US20240208992A1, “MACROCYCLES AS CFTR MODULATORS” (Idorsia Pharmaceuticals Ltd, priority 2021, published 2024).

Target: human F508del-CFTR (Homo sapiens, UniProt P13569, DEL508-508)
Test: F508del-CFTR cell surface expression (corrector activity), DiscoveRx ß-galactosidase complementation chemiluminescence assay in recombinant U2OS cell line;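 further: U2OS cells co-expressing ProLink-tagged F508del-CFTR and a membrane-anchored enzyme acceptor, where more surface CFTR restores β-galactosidase activity measured by chemiluminescence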
Settings: U2OS cells, 16h compound incubation; for EC50: EC50, F508del-CFTR cell surface expression, geomean of several measurements; for Emax: U2OS, in relation to the Emax of the corrector lumacaftor (=100%), arithmetic mean
Experimental: The method measures the effect of over-night compound incubation on F508del-CFTR cell surface expression in a recombinant U2OS cell line (DiscoveRx, #93-0987C3). This cell line is engineered to co-express (i) human F508del-CFTR tagged with a Prolink (PK=short ß-galactosidase fragment) and (ii) the remainder of the ß-galactosidase enzyme (Enzyme Acceptor; EA) localized to the plasma membrane. Incubation with compounds that increase PK-tagged F508del-CFTR at the plasma membrane will lead to complementation of the EA fragment to form a functional ß-galactosidase enzyme which is quantified by a chemiluminescence reaction.
The cells are incubated for 5h in the incubator before the addition of 5 μl/well of compound dilution series (5× working stocks in full medium). […] The cells are co-incubated with the compounds for 16h in the incubator at 37° C., 5% CO2. The next day, the cell plates are incubated for 2h at RT in the dark. […] Concentration-response curves are generated using compound-intrinsic maximal efficacy as upper plateau, and from these CRCs compound-intrinsic EC50 values are determined.
The calculated EC50 values may fluctuate depending on the daily assay performance. […] EC50 values from several measurements are given as geomean values. The calculated Emax values may fluctuate depending on the daily assay performance. […] Emax values from several measurements are given as arithmetic mean values.

human F508del-CFTR, sequence (P13569 with tags, fused parts or gaps DEL508-508): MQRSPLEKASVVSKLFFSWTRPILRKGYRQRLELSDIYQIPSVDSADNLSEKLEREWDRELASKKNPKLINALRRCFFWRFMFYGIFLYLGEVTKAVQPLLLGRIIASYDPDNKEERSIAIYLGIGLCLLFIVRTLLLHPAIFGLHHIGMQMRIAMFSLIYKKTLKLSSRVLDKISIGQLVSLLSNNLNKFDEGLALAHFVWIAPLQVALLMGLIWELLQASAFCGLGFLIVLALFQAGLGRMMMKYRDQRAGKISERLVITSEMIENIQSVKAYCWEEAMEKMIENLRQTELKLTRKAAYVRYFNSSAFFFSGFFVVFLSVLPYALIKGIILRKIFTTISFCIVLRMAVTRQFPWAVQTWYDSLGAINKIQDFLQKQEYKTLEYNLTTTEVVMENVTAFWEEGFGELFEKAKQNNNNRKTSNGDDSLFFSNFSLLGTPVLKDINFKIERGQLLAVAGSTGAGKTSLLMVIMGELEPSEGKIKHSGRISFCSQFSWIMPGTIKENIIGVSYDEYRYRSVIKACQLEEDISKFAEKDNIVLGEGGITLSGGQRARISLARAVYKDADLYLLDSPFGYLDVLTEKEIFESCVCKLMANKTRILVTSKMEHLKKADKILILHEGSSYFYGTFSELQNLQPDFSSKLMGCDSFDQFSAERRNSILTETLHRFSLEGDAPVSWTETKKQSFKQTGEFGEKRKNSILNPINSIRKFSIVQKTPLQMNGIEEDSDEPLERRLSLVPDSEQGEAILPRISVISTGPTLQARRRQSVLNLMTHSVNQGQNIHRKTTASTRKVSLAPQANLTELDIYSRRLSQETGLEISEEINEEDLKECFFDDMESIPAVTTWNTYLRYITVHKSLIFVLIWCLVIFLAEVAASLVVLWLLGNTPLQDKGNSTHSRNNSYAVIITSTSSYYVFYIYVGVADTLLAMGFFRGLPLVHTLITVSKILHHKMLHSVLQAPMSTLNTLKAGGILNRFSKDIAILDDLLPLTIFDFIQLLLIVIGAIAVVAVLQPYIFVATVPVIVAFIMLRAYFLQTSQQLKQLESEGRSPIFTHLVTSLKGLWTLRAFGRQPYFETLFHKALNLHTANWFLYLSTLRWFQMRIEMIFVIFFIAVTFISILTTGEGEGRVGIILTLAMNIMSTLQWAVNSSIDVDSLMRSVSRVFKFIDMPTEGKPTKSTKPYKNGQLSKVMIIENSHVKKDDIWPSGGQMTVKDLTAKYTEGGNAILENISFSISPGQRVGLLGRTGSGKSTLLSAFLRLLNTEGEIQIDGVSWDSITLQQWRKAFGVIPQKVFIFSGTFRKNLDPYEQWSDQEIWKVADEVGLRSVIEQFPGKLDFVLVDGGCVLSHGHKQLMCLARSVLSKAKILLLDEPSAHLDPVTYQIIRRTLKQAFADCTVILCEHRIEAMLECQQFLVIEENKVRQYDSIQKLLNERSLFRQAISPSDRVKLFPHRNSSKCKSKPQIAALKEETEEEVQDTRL

| Compound | EC50 [nM] | Emax [%] |
| --- | --- | --- |
| CC(C)C[C@H]1C(=O)N(C)[C@H](Cc2nc(-c3ccc(F)cn3)no2)C(=O)N[C@H](Cc2ccccc2)COc2cnc3ccc(F)cc3c2C(=O)N[C@H](C(=O)NC[C@@H](O)c2ccccc2)CC(=O)N1C [Example 842, (3S,7S,10R,13R)-13-benzyl-20-fluoro-10-((3-(5-fluoropyridin-2-yl)-1,2,4-oxadiazol-5-yl)methyl)-N-((S)-2-hydroxy-2-phenylethyl)-7-isobutyl-6,9-dimethyl-1,5,8,11-tetraoxo-1,2,3,4,5,6,7,8,9,10,11,12,13,14-tetradecahydro-[1]oxa[4,7,10,14]tetraazacycloheptadecino[17,16-c]quinoline-3-carboxamide] | 495 | 305 |
| COc1ccc(CCNC(=O)[C@@H]2CC(=O)N(C)[C@@H](CC(C)C)C(=O)N(C)[C@H](Cc3nc(-c4ccc(F)cn4)no3)C(=O)N[C@H](Cc3ccccc3)COc3cnc4ccc(F)cc4c3C(=O)N2)cn1 [Example 843, (3S,7S,10R,13R)-13-benzyl-20-fluoro-10-((3-(5-fluoropyridin-2-yl)-1,2,4-oxadiazol-5-yl)methyl)-7-isobutyl-N-(2-(6-methoxypyridin-3-yl)ethyl)-6,9-dimethyl-1,5,8,11-tetraoxo-1,2,3,4,5,6,7,8,9,10,11,12,13,14-tetradecahydro-[1]oxa[4,7,10,14]tetraazacycloheptadecino[17,16-c]quinoline-3-carboxamide] | 114 | 368 |
| CC(C)C[C@H]1C(=O)N(C)[C@H](Cc2nc(-c3ccc(F)cn3)no2)C(=O)N[C@H](Cc2ccccc2)COc2cnc3ccc(F)cc3c2C(=O)N[C@H](C(=O)NCCc2nc3ncccn3n2)CC(=O)N1C [Example 844, (3S,7S,10R,13R)-N-(2-([1,2,4]triazolo[1,5-a]pyrimidin-2-yl)ethyl)-13-benzyl-20-fluoro-10-((3-(5-fluoropyridin-2-yl)-1,2,4-oxadiazol-5-yl)methyl)-7-isobutyl-6,9-dimethyl-1,5,8,11-tetraoxo-1,2,3,4,5,6,7,8,9,10,11,12,13,14-tetradecahydro-[1]oxa[4,7,10,14]tetraazacycloheptadecino[17,16-c]quinoline-3-carboxamide] | 1040 | 356 |
| COCCCNC(=O)[C@@H]1CC(=O)N(C)[C@@H](CC(C)C)C(=O)N(C)[C@H](Cc2nc(-c3ccc(F)cn3)no2)C(=O)N[C@H](Cc2ccccc2)COc2cnc3ccc(F)cc3c2C(=O)N1 [Example 845, (3S,7S,10R,13R)-13-benzyl-20-fluoro-10-((3-(5-fluoropyridin-2-yl)-1,2,4-oxadiazol-5-yl)methyl)-7-isobutyl-N-(3-methoxypropyl)-6,9-dimethyl-1,5,8,11-tetraoxo-1,2,3,4,5,6,7,8,9,10,11,12,13,14-tetradecahydro-[1]oxa[4,7,10,14]tetraazacycloheptadecino[17,16-c]quinoline-3-carboxamide] | 453 | 308 |
| CC(C)C[C@H]1C(=O)N(C)[C@H](Cc2nc(-c3ccc(F)cn3)no2)C(=O)N[C@H](Cc2ccccc2)COc2cnc3ccc(F)cc3c2C(=O)N[C@H](C(=O)NCCCOC(F)(F)F)CC(=O)N1C [Example 846, (3S,7S,10R,13R)-13-benzyl-20-fluoro-10-((3-(5-fluoropyridin-2-yl)-1,2,4-oxadiazol-5-yl)methyl)-7-isobutyl-6,9-dimethyl-1,5,8,11-tetraoxo-N-(3-(trifluoromethoxy)propyl)-1,2,3,4,5,6,7,8,9,10,11,12,13,14-tetradecahydro-[1]oxa[4,7,10,14]tetraazacycloheptadecino[17,16-c]quinoline-3-carboxamide] | 165 | 261 |
| COc1ccc(CCNC(=O)[C@@H]2CC(=O)N(C)[C@@H](CC(C)C)C(=O)N(C)[C@H](Cc3nc(-c4ccc(F)cn4)no3)C(=O)N[C@H](Cc3ccccc3)COc3cnc4ccc(F)cc4c3C(=O)N2)nc1 [Example 847, (3S,7S,10R,13R)-13-benzyl-20-fluoro-10-((3-(5-fluoropyridin-2-yl)-1,2,4-oxadiazol-5-yl)methyl)-7-isobutyl-N-(2-(5-methoxypyridin-2-yl)ethyl)-6,9-dimethyl-1,5,8,11-tetraoxo-1,2,3,4,5,6,7,8,9,10,11,12,13,14-tetradecahydro-[1]oxa[4,7,10,14]tetraazacycloheptadecino[17,16-c]quinoline-3-carboxamide] | 186 | 340 |
| COc1nc(C)cc2c1C(=O)N[C@H](C(=O)NC[C@@H](O)c1ccccc1)CC(=O)N(C)[C@@H](CC(C)C)C(=O)N(C)[C@H](Cc1nc(C(F)(F)F)no1)C(=O)N[C@H](Cc1ccccc1)CO2 [Example 848, (3R,6R,9S,13S)-3-benzyl-N-((S)-2-hydroxy-2-phenylethyl)-9-isobutyl-16-methoxy-7,10,18-trimethyl-5,8,11,15-tetraoxo-6-((3-(trifluoromethyl)-1,2,4-oxadiazol-5-yl)methyl)-2,3,4,5,6,7,8,9,10,11,12,13,14,15-tetradecahydropyrido[3,4-p][1]oxa[4,7,10,14]tetraazacycloheptadecine-13-carboxamide] | 225 | 364 |
| COc1nc(C)cc2c1C(=O)N[C@H](C(=O)NCCc1nc(C3CC3)no1)CC(=O)N(C)[C@@H](CC(C)C)C(=O)N(C)[C@H](Cc1nc(C(F)(F)F)no1)C(=O)N[C@H](Cc1ccccc1)CO2 [Example 849, (3R,6R,9S,13S)-3-benzyl-N-(2-(3-cyclopropyl-1,2,4-oxadiazol-5-yl)ethyl)-9-isobutyl-16-methoxy-7,10,18-trimethyl-5,8,11,15-tetraoxo-6-((3-(trifluoromethyl)-1,2,4-oxadiazol-5-yl)methyl)-2,3,4,5,6,7,8,9,10,11,12,13,14,15-tetradecahydropyrido[3,4-p][1]oxa[4,7,10,14]tetraazacycloheptadecine-13-carboxamide] | 46 | 465 |
| COc1nccc2c1C(=O)N[C@H](C(=O)NCCCOC(F)F)CC(=O)N(C)[C@@H](CC(C)C)C(=O)N1CCCC[C@@H]1C(=O)N[C@H](Cc1ccccc1)CO2 [Example 850, (7S,11S,17aR,20R)-20-benzyl-N-(3-(difluoromethoxy)propyl)-11-isobutyl-4-methoxy-10-methyl-5,9,12,18-tetraoxo-5,6,7,8,9,10,11,12,15,16,17,17a,18,19,20,21-hexadecahydro-14H-dipyrido[2,1-f:3′,4′-p][1]oxa[4,7,10,14]tetraazacycloheptadecine-7-carboxamide] | 1150 | 224 |
| Cc1noc(CC[C@@H]2C(=O)N[C@H](Cc3ccccc3)COc3cnc4ccc(F)cc4c3C(=O)N[C@H](C(=O)NCCc3noc(C4CC4)n3)CC(=O)N(C)[C@@H](CC(C)C)C(=O)N2C)n1 [Example 851, (3S,7S,10R,13R)-13-benzyl-N-(2-(5-cyclopropyl-1,2,4-oxadiazol-3-yl)ethyl)-20-fluoro-7-isobutyl-6,9-dimethyl-10-(2-(3-methyl-1,2,4-oxadiazol-5-yl)ethyl)-1,5,8,11-tetraoxo-1,2,3,4,5,6,7,8,9,10,11,12,13,14-tetradecahydro-[1]oxa[4,7,10,14]tetraazacycloheptadecino[17,16-c]quinoline-3-carboxamide] | 148 | 310 |
